This passage reports MIC results from patent US11998533B2, “Pharmaceutical compositions comprising LTV-17 and beta-lactamase inhibitors and their use as antibacterial agents” (FEDORA PHARMACEUTICALS INC., priority 2021, dated 2024).

The MIC is the smallest concentration in the dilution series that meets the test's criterion for growth inhibition.

Holding throughout (assay type): cell-based
In one assay the test system is Klebsiella pneumoniae. Put plainly: MIC broth microdilution, Klebsiella pneumoniae isolate. The note with it: isolate 1167846, CMY-DHA, LTV-17 alone. The procedure:
(§1) Bacterial isolates: Representative resistant strains of Escherichia coli, Citrobacter freundii, Enterobacter cloacae, Klebsiella pneumoniae, and Proteus mirabilis harboring class-C β-lactamase producers were used to test for the synergistic effect of adding a β-lactamase inhibitor (II^j) to the antibiotic LTV-17 (I) (Table 1).
(§2) Minimum inhibitory concentration (MIC) test procedure: All antibiotics were tested by both the broth microdilution methods according to the Clinical and Laboratory Standards Institute (CLSI) recommendations (M07), and a modified CLSI method that included iron-depleted CA-MHB protocol. The MIC was defined as the lowest concentration of the antibiotic to produce clear wells in the 96-well plates. MIC interpretations were based on the CLSI M100-S23 (2013) and European Committee on Antimicrobial Susceptibility Testing (EUCAST; 2013) breakpoint criteria. Synergistic activity was calculated based on the number of two-fold dilution reduction of the MIC using LTV-17 (I) plus β-lactamase inhibitor Avibactam (II^j) compared to MIC of LTV-17 (I) tested alone against the same strains. The higher the number of two-fold reduction, the stronger the synergy is.
(§3) Avibactam was tested at a fixed concentration of 4 μg/mL.
In general terms: Dilution methods test growth across graded concentrations, often in twofold steps.

The test system of assay [1] is Citrobacter freundii species complex. Put plainly: MIC broth microdilution, Citrobacter freundii species complex isolate. Particulars: isolate 1056585, Elevated AmpC, LTV-17 alone. The procedure:
as §1, §2, §3

The test system of another assay is Proteus mirabilis. As to the kind of experiment: MIC broth microdilution, Proteus mirabilis isolate. Particulars: isolate 1159308, CMY-DHA, LTV-17 alone. The procedure: as §1, §2, §3
In assay [2] the test system is Enterobacter cloacae species complex. Put plainly: MIC broth microdilution, Enterobacter cloacae species complex isolates. Particulars: LTV-17 alone. The procedure:
as §1, §2, §3

A further assay relates to Escherichia coli. Put plainly: MIC broth microdilution, Escherichia coli isolates. The note with it: LTV-17 alone. On the procedure:
as §1, §2, §3

`CC(C)(O/N=C(\C(=O)N[C@H]1CON(C2(C(=O)O)C[C@H](N3C(=O)c4cc(O)c(O)cc4C3=O)C(=O)O2)C1=O)c1csc(N)n1)C(=O)O` (stereo partly drawn) [LTV-17, (4S)-2-[(4S)-4-{[(2Z)-2-(2-amino-1,3-thiazol-4-yl)-2-{[(2-carboxypropan-2-yl)oxy]imino}acetyl]amino}-3-oxo-1,2-oxazolidin-2-yl]-4-(5,6-dihydroxy-1,3-dioxo-1,3-dihydro-2H-isoindol-2-yl)-5-oxooxolane-2-carboxylic acid]: the MIC in the assay on Klebsiella pneumoniae is 1 mg/L; in assay [1], 0.5 mg/L; with Proteus mirabilis, 4 mg/L; in assay [2] (isolate 552115, Elevated AmpC), 2 mg/L; in assay [2] (isolate 1057610, Elevated AmpC), 0.25 mg/L; in assay [2] (isolate 1083996, Elevated AmpC), 0.5 mg/L. For the same compound, the MIC in the assay on Escherichia coli (isolate 827002, Elevated AmpC) came out at 0.03 mg/L; in the assay on Escherichia coli (isolate 841741, Elevated AmpC) it was 0.25 mg/L; in the assay with Escherichia coli (isolate 850348, Elevated AmpC), 1 mg/L; in the assay with Escherichia coli (isolate 850361, Elevated AmpC), 0.06 mg/L; in the assay with Escherichia coli (isolate 1043714, Elevated AmpC) it was 0.06 mg/L; in the assay with Escherichia coli (isolate 1047951, Elevated AmpC), 0.12 mg/L. Also, the MIC in the assay with Escherichia coli (isolate 1152443, CMY-DHA) was determined as 0.5 mg/L; in the assay with Escherichia coli (isolate 1160345, CMY-DHA) it was 0.5 mg/L; in the assay with Escherichia coli (isolate 1160670, CMY-DHA), 0.12 mg/L; in the assay with Escherichia coli (isolate 1165173, CMY-DHA) it was 0.25 mg/L; in the assay on Escherichia coli (isolate 1165490, CMY-DHA), 0.5 mg/L; with Escherichia coli (isolate 1165546, CMY-DHA), 0.5 mg/L. In addition, the MIC in the assay on Escherichia coli (isolate 1167103, CMY-DHA) came to 0.5 mg/L; in the assay on Escherichia coli (isolate 1167174, CMY-DHA), 4 mg/L.
